Here are results for 14 molecules from ChEMBL document CHEMBL1909046, “DrugMatrix in vitro pharmacology data”.

Test [1] is described as follows: DRUGMATRIX: Sodium/nucleoside co-transporter radioligand binding (ligand: nitrobenzylthioinosine). The class given is cell membranes, Cavia porcellus, Dunkin-Hartley, Cerebral cortex, Membrane. The following applies: Not Active = under 50% inhibition at 10 µM.
In another test the target is T1, B2 bradykinin receptor (Homo sapiens, UniProt P30411). Note: in other assays of this panel Not Active means under 50% inhibition at 10 µM.
T1 sequence (P30411 whole entry): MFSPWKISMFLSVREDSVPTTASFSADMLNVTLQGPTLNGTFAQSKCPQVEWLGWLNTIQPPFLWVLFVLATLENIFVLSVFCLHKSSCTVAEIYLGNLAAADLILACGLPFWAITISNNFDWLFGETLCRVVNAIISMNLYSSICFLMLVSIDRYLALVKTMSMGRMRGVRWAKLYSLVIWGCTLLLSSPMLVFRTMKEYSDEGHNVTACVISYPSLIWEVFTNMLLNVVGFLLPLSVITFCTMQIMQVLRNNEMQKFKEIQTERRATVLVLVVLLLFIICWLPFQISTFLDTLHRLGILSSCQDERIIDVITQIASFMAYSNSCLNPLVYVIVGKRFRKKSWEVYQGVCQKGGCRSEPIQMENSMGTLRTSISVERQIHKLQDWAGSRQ
The class given is cell membranes, Membrane. The following applies: chem-1.

The target of the next test is T2, Calcitonin receptor (Homo sapiens, UniProt P30988). Note: in other assays of this panel Not Active means under 50% inhibition at 10 µM.
T2 sequence (P30988 whole entry): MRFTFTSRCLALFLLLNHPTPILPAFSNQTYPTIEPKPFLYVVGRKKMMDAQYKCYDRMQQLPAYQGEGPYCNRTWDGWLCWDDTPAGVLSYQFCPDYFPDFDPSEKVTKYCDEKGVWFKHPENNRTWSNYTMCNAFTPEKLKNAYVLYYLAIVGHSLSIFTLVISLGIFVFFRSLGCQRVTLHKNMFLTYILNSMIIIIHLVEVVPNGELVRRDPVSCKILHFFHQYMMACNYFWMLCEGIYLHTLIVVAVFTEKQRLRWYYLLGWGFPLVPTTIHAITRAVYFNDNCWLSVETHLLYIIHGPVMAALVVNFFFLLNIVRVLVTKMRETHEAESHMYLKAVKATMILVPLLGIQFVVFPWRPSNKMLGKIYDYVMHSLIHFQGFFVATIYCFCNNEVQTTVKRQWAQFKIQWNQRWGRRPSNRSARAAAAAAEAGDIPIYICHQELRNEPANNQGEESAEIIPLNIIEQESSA
The class given is cell membranes, Membrane. The conditions noted are these: t47d.

A short description of test [2]: DRUGMATRIX: Serotonin (5-Hydroxytryptamine) 5-HT3 radioligand binding (ligand: [3H] GR-65630). The class given is cell membranes, Membrane. The conditions noted are these: hek293; Not Active = under 50% inhibition at 10 µM.
Test [3] has as its target Sigma non-opioid intracellular receptor 1 (Homo sapiens, UniProt Q99720). Put plainly: DRUGMATRIX: Sigma1 radioligand binding (ligand: [3H] Haloperidol). Format: cell membranes, Jurkat, Membrane. The conditions noted are these: Not Active = under 50% inhibition at 10 µM.
The target in a further test is Vasopressin V1a receptor (Homo sapiens, UniProt P37288). Format: cell membranes, Membrane. The following applies: hek293. Note: in other assays of this panel Not Active means under 50% inhibition at 10 µM.
Chain of Vasopressin V1a receptor (P37288 whole entry): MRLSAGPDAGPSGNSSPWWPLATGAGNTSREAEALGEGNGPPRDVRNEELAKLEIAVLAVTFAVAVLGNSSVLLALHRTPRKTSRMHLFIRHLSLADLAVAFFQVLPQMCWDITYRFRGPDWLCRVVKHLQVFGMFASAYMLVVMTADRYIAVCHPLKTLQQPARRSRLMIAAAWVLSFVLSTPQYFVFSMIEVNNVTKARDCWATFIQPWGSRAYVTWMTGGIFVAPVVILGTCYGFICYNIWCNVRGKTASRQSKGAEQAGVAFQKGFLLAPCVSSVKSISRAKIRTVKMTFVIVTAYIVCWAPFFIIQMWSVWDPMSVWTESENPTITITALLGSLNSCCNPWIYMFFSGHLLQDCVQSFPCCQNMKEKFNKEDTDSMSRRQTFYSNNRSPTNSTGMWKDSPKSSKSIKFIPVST
Test [4] is described as follows: DRUGMATRIX: Phosphodiesterase PDE3 enzyme inhibition (substrate: [3H]cAMP + cAMP). Format: tissue-based, Homo sapiens. The following applies: platelet; Not Active = under 50% inhibition at 10 µM.
A further test deals with T3, Estrogen receptor (Homo sapiens, UniProt P03372).
T3 sequence (P03372 whole entry): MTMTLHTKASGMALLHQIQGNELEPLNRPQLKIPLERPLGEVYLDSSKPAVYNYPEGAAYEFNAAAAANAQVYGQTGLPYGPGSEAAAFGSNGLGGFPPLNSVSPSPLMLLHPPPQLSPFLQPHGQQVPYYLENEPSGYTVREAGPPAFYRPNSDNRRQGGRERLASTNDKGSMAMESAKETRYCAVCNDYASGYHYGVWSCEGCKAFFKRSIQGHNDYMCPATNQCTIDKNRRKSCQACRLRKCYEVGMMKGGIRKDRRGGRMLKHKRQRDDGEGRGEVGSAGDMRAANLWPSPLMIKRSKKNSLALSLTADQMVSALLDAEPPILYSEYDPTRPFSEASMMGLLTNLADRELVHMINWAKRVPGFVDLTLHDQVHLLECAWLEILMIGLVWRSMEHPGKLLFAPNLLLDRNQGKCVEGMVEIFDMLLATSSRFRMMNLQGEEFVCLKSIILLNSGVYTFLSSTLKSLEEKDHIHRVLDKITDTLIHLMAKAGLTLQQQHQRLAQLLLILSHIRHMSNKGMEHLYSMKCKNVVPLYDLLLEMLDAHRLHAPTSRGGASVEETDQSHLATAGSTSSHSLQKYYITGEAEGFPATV
The following applies: sf9.

Chain of Sigma non-opioid intracellular receptor 1 (Q99720 whole entry): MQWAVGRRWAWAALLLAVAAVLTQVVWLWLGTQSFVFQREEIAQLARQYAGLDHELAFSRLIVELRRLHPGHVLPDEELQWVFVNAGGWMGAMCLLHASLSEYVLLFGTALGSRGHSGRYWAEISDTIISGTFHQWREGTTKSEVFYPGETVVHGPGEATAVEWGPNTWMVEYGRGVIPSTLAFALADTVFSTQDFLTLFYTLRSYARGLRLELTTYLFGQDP

Consider `CC[C@H]1[C@@H]2C[C@H]3[C@@H]4N(C)c5ccccc5[C@]45C[C@@H]([C@@H]2[C@H]5O)N3[C@@H]1O` [AJMALINE], for which the IC50 entry (in test [1]; at B2 bradykinin receptor; on Calcitonin receptor; in test [2]; in test [3] (jurkat); against Vasopressin V1a receptor) was “Not Active” in each case. The IC50 result (in test [4]; against Estrogen receptor) was “Not Active” in each case. Moreover, the inhibitory constant (Ki) result in test [1], in test [2] and in test [4] was “Not Active” each time.
In the case of `NCCCNCCSP(=O)(O)O` [AMIFOSTINE], the IC50 result (in test [1]; at B2 bradykinin receptor; on Calcitonin receptor; in test [2]; in test [3] (jurkat); against Vasopressin V1a receptor) was “Not Active” throughout. Further, the IC50 entry (in test [4]; on Estrogen receptor) was “Not Active” throughout. For the same molecule, the Ki entry in test [1], in test [2] and in test [4] was “Not Active” each time.
As to `CN(C)CCC=C1c2ccccc2CCc2ccccc21` [AMITRIPTYLINE], the IC50 entry in test [1] was “Not Active”; at B2 bradykinin receptor, “Not Active”; at Calcitonin receptor it was “Not Active”; in test [2], “Not Active”; in test [3] (read-out: IC50) it was 1030 nM; at Vasopressin V1a receptor it was “Not Active”. Besides, the IC50 result (in test [4]; against Estrogen receptor) was “Not Active” in each case. The Ki result in test [1] is “Not Active”; in test [2], “Not Active”; in test [3] (read-out: Ki), 433 nM; in test [4], “Not Active”.
As to `CC(=O)Oc1ccccc1C(=O)O` [ASPIRIN], the IC50 result (in test [1]; on B2 bradykinin receptor; at Calcitonin receptor; in test [2]; in test [3] (jurkat); against Vasopressin V1a receptor) was “Not Active” each time. For the same molecule, the IC50 entry (in test [4]; at Estrogen receptor) was “Not Active” throughout. Besides, the Ki entry in test [1], in test [2] and in test [4] was “Not Active” in each case.
For `CC(=O)OC[C@H]1O[C@@H](n2ncc(=O)[nH]c2=O)[C@H](OC(C)=O)[C@@H]1OC(C)=O` [AZARIBINE], the IC50 result (in test [1]; on B2 bradykinin receptor; on Calcitonin receptor; in test [2]; in test [3] (jurkat); on Vasopressin V1a receptor) was “Not Active” each time. The IC50 entry (in test [4]; at Estrogen receptor) was “Not Active” each time. In addition, the Ki result in test [1], in test [2] and in test [4] was “Not Active” throughout.
In the case of `O=C(O)CCNC(=O)c1ccc(/N=N/c2ccc(O)c(C(=O)O)c2)cc1` [BALSALAZIDE], the IC50 result (in test [1]; at B2 bradykinin receptor; at Calcitonin receptor; in test [2]; in test [3] (jurkat); against Vasopressin V1a receptor) was “Not Active” throughout. Further, the IC50 result (in test [4]; against Estrogen receptor) was “Not Active” in each case. Also, the Ki entry in test [1], in test [2] and in test [4] was “Not Active” in each case.
Regarding `ClC(Cl)(Cl)Cl` [CARBON TETRACHLORIDE], the IC50 entry (in test [1]; against B2 bradykinin receptor; on Calcitonin receptor; in test [2]; in test [3] (jurkat); against Vasopressin V1a receptor) was “Not Active” in each case. Moreover, the IC50 result (in test [4]; on Estrogen receptor) was “Not Active” each time. For the same molecule, the Ki result in test [1], in test [2] and in test [4] was “Not Active” throughout.
Regarding `CNC1=Nc2ccc(Cl)cc2C(c2ccccc2)=[N+]([O-])C1` [CHLORDIAZEPOXIDE], the IC50 entry (in test [1]; against B2 bradykinin receptor; at Calcitonin receptor; in test [2]; in test [3] (jurkat); against Vasopressin V1a receptor) was “Not Active” in each case. For the same molecule, the IC50 entry (in test [4]; at Estrogen receptor) was “Not Active” throughout. Also, the Ki result in test [1], in test [2] and in test [4] was “Not Active” each time.
Take `CCCNC(=O)NS(=O)(=O)c1ccc(Cl)cc1` [CHLORPROPAMIDE]: the IC50 entry (in test [1]; on B2 bradykinin receptor; at Calcitonin receptor; in test [2]; in test [3] (jurkat); at Vasopressin V1a receptor) was “Not Active” in each case. In addition, the half-inhibitory concentration (IC50) result (in test [4]; against Estrogen receptor) was “Not Active” in each case. Further, the Ki result in test [1], in test [2] and in test [4] was “Not Active” throughout.
Consider `O=C(O)CC(O)(CC(=O)O)C(=O)O` [CITRIC ACID], for which the IC50 result (in test [1]; on B2 bradykinin receptor; on Calcitonin receptor; in test [2]; in test [3] (jurkat); on Vasopressin V1a receptor) was “Not Active” throughout. Moreover, the IC50 entry (in test [4]; on Estrogen receptor) was “Not Active” throughout. Moreover, the Ki result in test [1], in test [2] and in test [4] was “Not Active” in each case.
For `CC(C)NCC(O)c1ccccc1Cl` (stereo not given) [CLORPRENALINE], the IC50 entry (in test [1]; against B2 bradykinin receptor; at Calcitonin receptor; in test [2]; in test [3] (jurkat); on Vasopressin V1a receptor) was “Not Active” throughout. The 50% inhibitory concentration (IC50) result (in test [4]; on Estrogen receptor) was “Not Active” throughout. The Ki entry in test [1], in test [2] and in test [4] was “Not Active” each time.
For the molecule `CN1C[C@@H]2C[C@H]1CN2c1cc2c(cc1F)c(=O)c(C(=O)O)cn2C1CC1` [DANOFLOXACIN], the IC50 entry (in test [1]; against B2 bradykinin receptor; at Calcitonin receptor; in test [2]; in test [3] (jurkat); on Vasopressin V1a receptor) was “Not Active” each time. Moreover, the IC50 entry (in test [4]; against Estrogen receptor) was “Not Active” throughout. Further, the Ki entry in test [1], in test [2] and in test [4] was “Not Active” each time.
As to `O=C(O)c1cc(-c2ccc(F)cc2F)ccc1O` [DIFLUNISAL], the IC50 entry (in test [1]; at B2 bradykinin receptor; at Calcitonin receptor; in test [2]; in test [3] (jurkat); at Vasopressin V1a receptor) was “Not Active” in each case. Further, the IC50 result (in test [4]; at Estrogen receptor) was “Not Active” in each case. Besides, the Ki result in test [1], in test [2] and in test [4] was “Not Active” throughout.
On to `CC1=NN(c2ccccc2)C(=O)C1` [EDARAVONE], for which the IC50 result (in test [1]; on B2 bradykinin receptor; at Calcitonin receptor; in test [2]; in test [3] (jurkat); on Vasopressin V1a receptor) was “Not Active” in each case. In addition, the IC50 entry (in test [4]; against Estrogen receptor) was “Not Active” in each case. The Ki result in test [1], in test [2] and in test [4] was “Not Active” each time.

By IC50 is commonly meant the concentration that inhibits the measured activity by half. What is called Ki is a measure of affinity in units of concentration, obtained from inhibition or displacement.
